Drawing on BindingDB's records for patent US20240092761 (Iambic Therapeutics, 2024), this text covers IC50 for one compound.

The target of assay [1] is Cyclin-dependent kinase 4/G1/S-specific cyclin-D1 (Homo sapiens, UniProt P11802). The assay is described as follows: CDK4/Cyclin D1 Mobility Shift Assay (MSA). The method, then:
CDK4/Cyclin D1 catalyzes the production of ADP from ATP that accompanies the phosphoryl transfer to the substrate peptide 5-FAM-Dyrktide (5-FAM-RRRFRPASPLRGPPK) (Perkin Elmer Peptide 34). The mobility shift assay (MSA) electrophoretically separates the fluorescently labelled peptides (substrate and phosphorylated product) following the kinase reaction. Both substrate and product are measured, and the ratio of these values is used to generate % conversion of substrate to product by the LabChip EZ Reader. Typical reaction solutions contained 2% DMSO (+/−inhibitor), 10 mM MgCl2, 1 mM EGTA, 0.05% BSA, 2 mM DTT, 0.2 mM ATP, 0.01% Brig-35, 1.5 uM 5-FAM-Dyrktide, 2.5 nM CDK4/Cyclin D1 in 50 mM HEPES buffer at pH 7.5. The reaction was initiated with the addition of substrate solution, following a 30-minute pre-incubation of enzyme and inhibitor at 22° C. in the reaction mix. The reaction was stopped after 180 minutes by the addition of 75 uL of 500 mM EDTA and measured on a Perkin Elmer EZ reader instrument.

The target in assay [2] is Cyclin-dependent kinase/G2/mitotic-specific cyclin- 1 (Homo sapiens, UniProt P06493). The assay is described as follows: CDK1/Cyclin B1 ADP-Glo Kinase Assay. The method, then: The luminescent signal generated is proportional to the ADP concentration produced and is correlated with the kinase activity. CDK1/Cyclin B1 was purchased from Carna (Cat 04-102). Typical reaction solutions (10 uL final reaction volume) contained 2% DMSO (f inhibitor), 10 mM MgCl2, 1 mM EGTA, 0.05% BSA, 2 mM DTT, 80 uM ATP (ATP Km=78.6 uM), 0.01% Brig-35, 0.75 uM substrate, and 4.917 nM CDK1/Cyclin Bl enzyme complex in 50 mM HEPES buffer at pH 7.5. The assay was initiated with the addition of ATP-containing substrate solution, following a 30-minute pre-incubation of enzyme and inhibitor at room temperature in the reaction mixture. The reaction was stopped after 90 minutes at room temperature by the addition of 10 uL of ADP-GLO Reagent. After a 90 minute incubation, 20 uL of Kinase Detection Reagent was added. Samples were incubated for 40 minutes, after which plate well luminescence was measured on a Envision microplate reader.

For assay [3], the target named is Cyclin-dependent kinase 2/G1/S-specific cyclin-E1 (Homo sapiens, UniProt P24941). The experiment in a line: CDK2/Cyclin E1 Full Length ADP-Glo Kinase Assay. The method, then:
ADP-Glo is performed in 2 steps upon completion of kinase reaction: a combined termination of kinase reaction and depletion of remaining ATP in the first step, and conversion of generated ADP to ATP and the newly produced ATP to light output using luciferase/luciferin reaction in the second step. The luminescent signal generated is proportional to the ADP concentration produced and is correlated with the kinase activity. CDK2/Cyclin E1 was purchased from Eurofins (Cat 14-475M). Typical reaction solutions (10 uL final reaction volume) contained 2% DMSO (f inhibitor), 10 mM MgCI2, 1 mM EGTA, 0.05% BSA, 2 mM DTT, 20 uM ATP (ATP Km=64.78 uM), 0.01% Brig-35, 0.75 uM substrate, and 0.328 nM wild-type full length CDK2/Cyclin E1 enzyme complex in 50 mM HEPES buffer at pH 7.5. The assay was initiated with the addition of ATP-containing substrate solution, following a 30-minute pre-incubation of enzyme and inhibitor at room temperature in the reaction mixture. The reaction was stopped after 90 minutes at room temperature by the addition of 10 uL of ADP-GLO Reagent. After a 90 minute incubation, 20 uL of Kinase Detection Reagent was added. Samples were incubated for 40 minutes, after which plate well luminescence was measured on a Envision microplate reader.
Background: In ADP-Glo the light output rises with the ADP produced.

The term IC50 denotes the concentration needed to halve the response being measured.

Chain of Cyclin-dependent kinase 4/G1/S-specific cyclin-D1 (P11802 whole entry): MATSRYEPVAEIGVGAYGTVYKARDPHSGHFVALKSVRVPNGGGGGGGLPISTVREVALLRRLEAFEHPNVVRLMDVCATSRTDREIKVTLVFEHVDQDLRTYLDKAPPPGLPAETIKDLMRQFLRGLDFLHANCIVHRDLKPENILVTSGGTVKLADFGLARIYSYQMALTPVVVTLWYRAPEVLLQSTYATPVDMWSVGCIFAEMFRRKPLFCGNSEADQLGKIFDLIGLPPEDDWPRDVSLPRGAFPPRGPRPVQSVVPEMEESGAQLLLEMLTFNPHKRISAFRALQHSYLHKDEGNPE
Chain of Cyclin-dependent kinase 4/G1/S-specific cyclin-D1 (P24385 whole entry, further chain): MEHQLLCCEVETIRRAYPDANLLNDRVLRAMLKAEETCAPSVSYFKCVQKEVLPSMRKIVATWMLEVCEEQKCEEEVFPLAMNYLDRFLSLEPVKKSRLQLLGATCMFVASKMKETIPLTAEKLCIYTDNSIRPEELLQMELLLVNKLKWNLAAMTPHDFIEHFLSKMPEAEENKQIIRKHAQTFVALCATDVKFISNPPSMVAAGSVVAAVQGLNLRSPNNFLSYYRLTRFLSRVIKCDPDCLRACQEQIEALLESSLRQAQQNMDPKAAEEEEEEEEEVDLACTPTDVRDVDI
Chain of Cyclin-dependent kinase/G2/mitotic-specific cyclin- 1 (P06493 whole entry): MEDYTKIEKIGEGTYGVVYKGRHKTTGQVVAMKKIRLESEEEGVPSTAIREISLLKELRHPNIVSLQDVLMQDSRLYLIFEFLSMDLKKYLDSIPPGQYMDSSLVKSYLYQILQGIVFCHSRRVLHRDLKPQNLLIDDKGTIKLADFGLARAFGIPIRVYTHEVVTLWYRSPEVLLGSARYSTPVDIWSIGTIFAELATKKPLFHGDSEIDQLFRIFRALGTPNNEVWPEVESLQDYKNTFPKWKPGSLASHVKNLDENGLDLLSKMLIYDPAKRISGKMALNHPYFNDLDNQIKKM
Chain of Cyclin-dependent kinase/G2/mitotic-specific cyclin- 1 (P14635 whole entry, further chain): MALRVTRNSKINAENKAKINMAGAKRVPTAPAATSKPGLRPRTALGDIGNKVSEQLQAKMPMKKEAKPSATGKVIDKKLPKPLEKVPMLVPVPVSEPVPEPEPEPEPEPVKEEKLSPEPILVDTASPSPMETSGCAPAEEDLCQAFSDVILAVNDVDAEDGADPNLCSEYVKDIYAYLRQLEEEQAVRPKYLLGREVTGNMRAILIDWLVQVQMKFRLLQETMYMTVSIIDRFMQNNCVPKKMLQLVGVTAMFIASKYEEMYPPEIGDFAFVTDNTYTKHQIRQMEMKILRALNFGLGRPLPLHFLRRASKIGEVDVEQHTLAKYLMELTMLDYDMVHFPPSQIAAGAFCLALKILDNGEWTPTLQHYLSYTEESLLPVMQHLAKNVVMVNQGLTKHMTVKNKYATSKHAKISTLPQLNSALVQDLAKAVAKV

Turning to `CS(=O)(=O)N1CCC(Nc2ncc3cccc(N4CCC(N5CCC5)C4)c3n2)CC1` (stereo not drawn) [US20240092761, Compound 32], the IC50 in assay [1] was 0.2 to 0.5 µM; in assay [2], > 2 µM; in assay [3] it was < 0.2 µM.
